Measured values taken from patent US20220039395A1, “INSECT CONTROL AGENTS” (priority 2018, published 2022).
Square brackets hold non-standard residues; d marks the D form. Ends that are not written are not given here. Alexa‑488‑C5‑maleimide = fluorescent Alexa 488 label coupled to Cys via C5-maleimide; β3hL = CC(C)C[C@H](N)CC(=O)O

What was measured:
[1] = system: Myzus persicae; assay: Feeding of aphids with peptides in artificial diet; life span and fecundity; format: in vivo; details: M. persicae on artificial diet containing the peptide; mean ± SE
Description: A standard artificial diet for M. persicae was produced as described in Van Emden (2009) and provided the basal diet to which neuropeptide analogues were added for screening purposes. Neuropeptide analogues were diluted individually in the artificial diet to a pre-determined recommended concentration as follows: 1895 (3.5×10^-5 M) and 2019 (2.0×10^-5 M). Feeding apparatus were constructed using a set-up developed by […] et al (2009). For this, a piece of Parafilm was stretched over a Plexiglas ring (h=4 cm, Ø=3 cm) and 100 μl of the artificial diet containing the desired neuropeptide analogue was pipette onto the Parafilm membrane. A second piece of Parafilm, stretched to 4 times the original thickness, was stretched over the original layer, sandwiching the artificial diet between two layers of Parafilm. A strip of Parafilm was wrapped around the circumference of the Plexiglas ring, sealing in the diet. A plastic ring (h=1.2 cm, Ø=3.4 cm) was subsequently placed over the Parafilm layer, creating a walled chamber in which to house test aphids in contact with the Parafilm layer containing the artificial diet. Finally, a small Petri dish (h=1 cm, Ø=3.6 cm), modified for ventilation with net cloth, was placed on top of each feeding apparatus to prevent aphid escape. To obtain aphids for use in experiments, reproducing anholocyclic adults were placed on individual excised leaves of Chinese cabbage at densities of 5 adults per leaf and allowed to reproduce for 24 h. The stem of each excised leaf was held within a 0.5 mL Eppendorf tube containing water via a punctured hole in the Eppendorf lid, and placed individually within a microcage (L=4 cm, Ø=9.5 cm). Following 24 h, adults were removed and resultant first instar nymphs (<1 day old and synchronised in age to within 24 h) retained. Nymphs were allowed to develop on the Chinese cabbage for 5 days. On day 5, (3rd instar) nymphs were transferred onto the artificial diet containing a neuropeptide analogue at densities of 1 per feeding chamber and monitored daily until death. Aphids were transferred to fresh artificial diet (containing neuropeptide analogue) every 5 days. Life history traits recorded include age at first reproduction, number of nymphs produced per 24 h period, and lifespan. From these parameters, lifetime fecundity and daily fecundity were calculated. Control groups were set up involving aphids reared on the host plant, an artificial diet without a neuropeptide analogue, and an artificial diet containing the native CAPA neuropeptide.

[2] = system: M. rosae gut, brain and ventral nerve cord; assay: Receptor mapping assay using fluorescently labelled neuropeptides; format: binding, Macrosiphum rosae; details: labelled neuropeptide 10^−7 M; for site of binding in the gut: displaced by excess unlabelled peptide
Description: (§1) Aphids were cold anesthetized and the tissue of interest dissected out in a 1:1 solution of Schneider's insect medium and optimized saline.^7,42 The dissected tissue was mounted on a poly-L-lysine-covered 35 mm glass bottom dish containing 1:1 saline. Nuclei were stained via incubation in DAPI (1 μg ml^−1) and a baseline image taken to determine the level of autofluorescence and adjust exposure settings accordingly. All images were recorded on an inverted confocal microscope (Zeiss LSM 510 Meta). A labelled neuropeptide (10^−7 M) was subsequently added and the sample imaged. The concentration of 10^−7 M was chosen for labelled neuropeptides because it represents the minimal concentration required to produce a saturated receptor response, thereby optimizing the conditions for optical detection of ligand-receptor complexes.^7 Following imagining, unlabelled neuropeptide (10^−5 M) was added to the sample and a time-lapse experiment set up to determine if the unlabelled neuropeptide outcompeted the labelled neuropeptide, thus reaffirming the detection of the ligand-receptor complexes. Images were collected every 30 s for a duration of 20-30 m. All images were exported as JPEG files and subsequently viewed in FIJI and Microsoft Illustrator.

[3] = system: M. persicae gut, brain and ventral nerve cord; assay: as above; format: binding, Myzus persicae; details: labelled neuropeptide 10^−7 M; for site of binding in the gut: displaced by excess unlabelled peptide
Description: as §1

[4] = system: Aphids; assay: Feeding with peptides in artificial diet, mortality without other stress; format: in vivo, Myzus persicae; details: for effect on mortality in the absence of additional stressors: no additional stress conditions
Description: A standard artificial diet for M. persicae was produced as described in Van Emden (2009) and provided the basal diet to which neuropeptide analogues were added for screening purposes. Neuropeptide analogues were diluted individually in the artificial diet to a pre-determined recommended concentration as follows: 1895 (3.5×10^−5 M) and 2019 (2.0×10^−5 M).
Feeding apparatus were constructed using a set-up developed by Sadeghi et al (2009). For this, a piece of Parafilm was stretched over a Plexiglas ring (h=4 cm, Ø=3 cm) and 100 μl of the artificial diet containing the desired neuropeptide analogue was pipette onto the Parafilm membrane. A second piece of Parafilm, stretched to 4 times the original thickness, was stretched over the original layer, sandwiching the artificial diet between two layers of Parafilm. A strip of Parafilm was wrapped around the circumference of the Plexiglas ring, sealing in the diet. A plastic ring (h=1.2 cm, Ø=3.4 cm) was subsequently placed over the Parafilm layer, creating a walled chamber in which to house test aphids in contact with the Parafilm layer containing the artificial diet. Finally, a small Petri dish (h=1 cm, Ø=3.6 cm), modified for ventilation with net cloth, was placed on top of each feeding apparatus to prevent aphid escape.
To obtain aphids for use in experiments, reproducing anholocyclic adults were placed on individual excised leaves of Chinese cabbage at densities of 5 adults per leaf and allowed to reproduce for 24 h. The stem of each excised leaf was held within a 0.5 mL Eppendorf tube containing water via a punctured hole in the Eppendorf lid, and placed individually within a microcage (L=4 cm, Ø=9.5 cm). Following 24 h, adults were removed and resultant first instar nymphs (<1 day old and synchronised in age to within 24 h) retained. Nymphs were allowed to develop on the Chinese cabbage for 5 days. On day 5, (3rd instar) nymphs were transferred onto the artificial diet containing a neuropeptide analogue at densities of 1 per feeding chamber and monitored daily until death. Aphids were transferred to fresh artificial diet (containing neuropeptide analogue) every 5 days. Life history traits recorded include age at first reproduction, number of nymphs produced per 24 h period, and lifespan. From these parameters, lifetime fecundity and daily fecundity were calculated. Control groups were set up involving aphids reared on the host plant, an artificial diet without a neuropeptide analogue, and an artificial diet containing the native CAPA neuropeptide.
Aphids were reared on artificial diet, alone or supplemented with peptide 2129, 2315, 2316 or 2320. A control group (no test peptide) was reared on a host plant. No other stress conditions were applied.
For peptides 2315, 2316 and 2320, mortality was assessed at 48, 72, 96, 120 and 144 hours. A group of 9 or 10 insects was used for each time point, and all experiments were performed at least 4 times.

[5] = system: Myzus persicae; assay: Topical application by spraying, air brush; format: in vivo; details: 750 μl, positive control 28.3 μM, counted 48 hours post spray
Description: (§2) Aphids were exposed to test peptides in the absence of additional external stress conditions.
(§3) Brassica rapa (Chinese cabbage; Wong Bok) were infested with 30 adult Myzus persicae aphids per plant. Aphids were left at least 2 hours to settle and begin feeding from the host plant.
Spraying took place inside an externally vented fume cupboard. […] To ensure spray tracking, all sprayed solutions had amaranth dye added, allowing the full surface of the plant to be evenly coated with the aerosolised compound.
The plants to be sprayed were placed inside a plastic disposal bag, inside the fume cupboard. This was used to control the area exposed to the aerosolised liquid, to avoid extensive spraying and cleaning inside the fume cupboard. The bag was further lined with absorbent paper towel to again help contain and control spray.
Each experiment had three controls:
i) no vehicle or peptide air spray only, negative control to assess effect of spraying on aphid ability to remain attached to the plant; ii) vehicle spray only (Tween 24 0.1%); and iii) Imidacloprid positive control (28.3 μM).
Imidacloprid was always applied last to prevent any possibility of stray pesticide being left inside the disposal bag and contaminating a test peptide applied plant.
Spray volumes for all solutions for this experiment 750 μl.
A clean air brush (ABEST AC06k30) was loaded with 750 μl of peptide solution diluted in […] 0.1% vehicle. For this experiment there were three test conditions: 1895 alone (1×10^−5M); 2129 alone (1×10^−5M); and a simultaneous co-application of 1895+2129 together (1×10^−5M of each peptide). During application, the air brush was held within the plastic bag and the compressor turned on. The air brush was then gently sprayed back and forth across the plant. […]
Post peptide application, each condition was placed into its own individual Bugdorm (Watkins and Doncaster, 44545), to prevent repulsed or displaced aphids moving from one condition to another. Numbers of alive and dead aphids on the plant were counted 48 hours post spray, and the presence of any fresh nymphs noted. […]

[6] = system: Myzus persicae; assay: Topical application by spraying, Potter Spray Tower; format: in vivo; details: 3000 μl, positive control 28.3 μM, counted 48 hours post spray
Description: as §2, §3
Spraying took place inside a designated spray room. To ensure spray tracking, all sprayed solutions had amaranth dye added.
Potter Spray Tower (Burkard Manufacturing) was ‘primed’ by spraying 1000 μl of liquid coating the inside of the tower. Two controls were used:
i) vehicle spray only (Croda ATPlus UEP 100 LQ-(CQ) 0.1% v/v); and ii) Imidacloprid positive control (28.3 μM).
Imidacloprid was always applied last and via a second, separate, Potter Tower, to prevent any possibility of stray pesticide being left inside the tower and contaminating a test peptide-applied plant.
Spray volumes for all solutions were 3000 μl. The 6.9 mm spray head was loaded with 3000 μl of a 1×10^−5M peptide solution diluted in ATPlus 0.1%. After spraying was completed the plant was allowed to rest on the spray platform for 30 seconds to allow settling of the sprayed chemical.
For this experiment there were three test conditions: 1895 alone (1×10^−5M); 2129 alone (1×10^−5M); and a simultaneous co-application of 1895+2129 together (1×10^−5M of each peptide).
Post peptide application, each condition was placed into its own individual Bugdorm (Watkins and Doncaster, 44545), to prevent repulsed or displaced aphids moving from one condition to another. Numbers of alive and dead aphids on the plant were counted 48 hours post spray, and the presence of any fresh nymphs noted. Plants were watered prior to spraying but not afterwards to eliminate the possibility of drowning any aphids present or washing off the sprayed liquid.
Post spraying, the spray head was filled with over 3000 μl of 70% ethanol and sprayed until empty. The spray head was carefully removed and rinsed with 70% ethanol as some amaranth dye was observed on the spray head. […]

Compound | Age at 1st reproduction [1] | Ave. daily fecundity [1] | Days as reproducing adult [1] | Life span [1] | Lifetime fecundity [1] | staining of brain and ventral nerve cord (VNC) [2] | site of binding in the gut [2] | staining of brain and ventral nerve cord (VNC) [3] | site of binding in the gut [3] | further results
Native Kinin: native kinin neuropeptide based on the kinin structure of Drosophila melanogaster, synthesized by Cambridge Peptides (NSVVLGKKQRFHSWG; ends and bridges not checked) [reference compound] | 11.1 ± 0.5 days | 1.6 ± 0.2 nymphs | 5.9 ± 1.0 | 18.8 ± 1.3 days | 9.7 ± 1.9 nymphs | – | – | – | – | –
TMR-C5-maleimide-CGANMGLYAFPRVamide (TMR-C5-maleimide on Cys; C-terminal amide; labelled CAPA-1) [CAPA-1-F] | – | – | – | – | – | no sites of receptor binding in either the brain or the VNC | bind to the circular and longitudinal muscles of the aphid gut | no sites of receptor binding in either the brain or the VNC | bind to the circular and longitudinal muscles of the aphid gut | –
ASGL[βhL]AFPRV-NH2 (ASGL[β3hL]AFPRV-NH2; N-terminus assumed; SMILES CC(C)C[C@@H](CC(=O)N[C@@H](C)C(=O)N[C@@H](Cc1ccccc1)C(=O)N1CCC[C@H]1C(=O)N[C@@H](CCCNC(=N)N)C(=O)N[C@H](C(N)=O)C(C)C)NC(=O)[C@H](CC(C)C)NC(=O)CNC(=O)[C@H](CO)NC(=O)[C@H](C)N) [compound 2316] | – | – | – | – | – | – | – | – | – | Dead (48 h) ([4]; artificial diet supplemented with peptide, 48 h): 86.0%; Dead (72 h) ([4]; artificial diet supplemented with peptide, 72 h): 88.0%; Dead (96 h) ([4]; artificial diet supplemented with peptide, 96 h): 90.0%; Dead (120 h) ([4]; artificial diet supplemented with peptide, 120 h): 92.0%; Dead (144 h) ([4]; artificial diet supplemented with peptide, 144 h): 92.0%; effect on mortality in the absence of additional stressors [4]: increase mortality in the absence of additional stressors; effect on mortality in the absence of additional stressors ([4]; listed as 2136): increase mortality in the absence of additional stress conditions
O=[N+]([O-])NC1=NCCN1Cc1ccc(Cl)nc1 [Imadocloprid, Imidacloprid, reference compound] | – | – | – | – | – | – | – | – | – | % Lethality [5]: 100%; % Lethality [6]: 93%
GANMGLYAFPRVamide (GANMGLYAFPRV-NH2) [Native Capa, reference compound] | 11.2 ± 0.2 days | 1.6 ± 0.1 nymphs | 7.6 ± 0.6 | 21.3 ± 0.7 days | 12.0 ± 1.2 nymphs | – | – | – | – | –
Alexa-488-C5-maleimide-CNSVVLGKKQRFHSWGamide (C(Alexa‑488‑C5‑maleimide)NSVVLGKKQRFHSWG-NH2) [kinin-F] | – | – | – | – | – | no specific staining | bind to the circular and longitudinal muscles of the aphid gut | staining apparent in a bilateral symmetrical ‘ladder’ of neuronal clusters | bind to the circular and longitudinal muscles of the aphid gut | –
